For series [1], the system named is NeuN expression in PC12 cells strain #3. Description: Western blot of NeuN in PC12 strain #3. The class given is cell-based, rat. As to conditions: PC12 strain #3, versus vehicle control. The protocol: The relative protein levels of TSPO and other proteins related to neurodifferentiation (including β-actin, NeuN, tubulin-3β), were assayed by immunoblotting with the aid electrophoresis through 12% SDS-polyacrylamide gel, according to previously described methods.[71] A priori, general protein levels were measured by the method of Bradford using BSA as a standard.[75] After electrophoresis, the gels were subjected to electrophoretic transfer to nitrocellulose membranes. Then, the membranes were blocked for 1 h in 5% non-fat milk in 62.5 mM sodium phosphate buffer, pH 7.4, containing 100 mM NaCl, and 0.1% (v/v) Tween-20 (PBS-T) and then incubated for 2 h or overnight at 4 °C with the appropriate antibodies: anti-tubulin-3β 1 : 10 000, anti-NeuN 1 : 1000, anti β-actin 1 : 15 000, and anti-TSPO 1 : 10 000.[73] After washing with TBS-T, the membranes were incubated with IgG secondary antibody linked to horseradish peroxidase (anti-rabbit IgG 1 : 20 000, anti-mouse IgG 1 : 10 000, as appropriate, from Jackson Immunologicals, West Grove, PA, USA) in TBS-T at room temperature. Binding of antibodies to the membrane was detected with the EZ-ECL-detection reagent (Biological Industries), using the ImageQuant LAS 4010 apparatus and Totallab Quant quantitative image analysis of Totallab (Newcastle upon Tyne, England).

Series [2] has as its system PC12 cells strain #1 (polygonal cells). Description: Neuronal differentiation (neurite sprouting) of PC12 strain #1. As to conditions: strain #1, only polygonal cells. In kind it is cell-based, rat.
Series [3] relates to U118MG cells. Description: Mitochondrial ROS / cardiolipin oxidation (NAO) assay in U118MG cells exposed to glutamate. The class given is cell-based, human. The settings on record: 25 μM compound, 35 mM glutamate. An excerpt: Cardiolipin is present in the inner mitochondrial membrane, at the contact sites with the outer mitochondrial membrane. By application of NAO, we assayed cardiolipin peroxidation as an indication of mitochondrial ROS generation, as described previously.[71] NAO binds with high affinity to non-oxidized cardiolipin in a 2 : 1 ratio, but with less affinity to oxidized cardiolipin, the latter which is reflected by lower levels of green NAO fluorescence.[78] For our study, cells were collected and centrifuged at 1200×g for 5 min, 4 °C. Cell pellets were re-suspended in 0.5 ml of 0.1 μM NAO and incubated for 30 min at 37 °C in the dark. Then, the cells were washed once with 0.5 ml PBS and transferred into 5 ml FALCON FACS tubes and analyzed with the aid of a BD FACSCalibur flow cytometer using CellQuest software (BD Biosciences, Franklin Lakes, NJ, USA).

Series [4] concerns U118MG cells. As to the kind of experiment: LDH cytotoxicity assay, glutamate-induced cell death of U118MG cells. The settings on record: for Protection against glutamate-induced cell death (LDH): 35 mM glutamate, compound 10-100 μM, 24 h pretreatment; for Lethal effects of the compound (LDH): compound 10-100 μM by itself or with 35 mM glutamate. How it is done:
(1) For U118MG cells, glutamate at a concentration of 35 mM was applied with or without MGV-1. As discussed, glutamate levels in normal healthy brain tissue can average 15 mM, and these levels can be doubled in diseased brain tissue, whereas in cell organelles glutamate levels can be as high as 250 mM (as discussed). […] In more detail, U118MG cells were seeded, 2×10^5 cells per well of 6-well plates and 6×10^3 cells per well of 96-well plates. Twenty-four hours after seeding, U118MG cells were pretreated with MGV-1 (or one of the other compounds) at various concentrations from 0.1 nM–100 μM. Twenty-four hours after the pretreatment, the cells were exposed to 35 mM of glutamate. […] The negative control was vehicle, that is, ethanol with a final concentration of 1%. […] The positive control was exposure to 35 mM of glutamate alone (with 200 μM of glycine).
Wells of 96-well plates were with 6000 cells per well and treated according the protocol presented above. We used the Cytotoxicity Detection Kit (LDH) (Roche Pharmacuticals) according to the manufacturer’s instructions. When cell plasma membranes are damaged, the cytoplasmic enzyme LDH is released into the medium. The amount of formazan formed is proportional to the amount of LDH released.[77] The resulting color intensity is proportional to the number of damaged cells. Absorbance at 492 nm with reference at 690 nm was measured with the Spectrophotometer Zenyth 200 (Anthos) and the results were calculated and normalized according to the formula presented by the manufacturer.

Series [5] deals with U118MG cells. As to the kind of experiment: Mitochondrial membrane potential (JC-1) assay in U118MG cells exposed to glutamate. In kind it is cell-based, human. The settings on record: 25 μM compound, 35 mM glutamate. An excerpt:
JC-1 was used to assay changes in Δψm, as described previously.[71],[79] Owing to charges distributed along JC-1 molecules, they pass unimpaired (charged) mitochondrial membranes and enter the mitochondrial matrix. There the J-molecules form J-aggregates, which emit at 590 nm (orange–red fluorescence). […] The monomers emit at 527 nm (green fluorescence). A decrease in the red–green fluorescence intensity ratio is an indication for mitochondrial depolarization. As a positive control, the proton ionophore carbonyl cyanide m-chlorophenylhydrazone was used as described previously.[71] Cells were collected and prepared for suspension in 10 μg/ml of JC-1 solution in PBS. After incubation at 37 °C for 30 min in the dark, the cells were washed with 0.5 ml of PBS, and the cell suspensions were analyzed with the BD FACSCalibur flow cytometer.

Series [6] concerns the target T1, 18 kDa translocator protein (TSPO) (Rattus norvegicus, UniProt P16257).
T1 construct: 400 μl of homogenized rat kidney membranes (5 mg of homogenate/ml); from tissue; host or cells: rat kidney (homogenized membranes)
As to the kind of experiment: TSPO binding, displacement of [3H]PK 11195 in rat kidney membranes. How it is done: After incubation for 60 min at 4 °C, samples were filtered under vacuum over Whatman GF/C filters and washed three times with 5 ml of 50 mM Tris-HCl buffer, pH 7.4. The filters were incubated in CytoScint (MP Biomedicals) and radioactivity was measured after 12 h with a 1600 CA Tri-Carb liquid scintillation analyzer (Packard). Inhibitory constant (Ki) values were calculated by the equation Ki=IC50/(1+C/Kd), where C=[^3H]

Another series concerns R6-2 mice. As to the kind of experiment: R6-2 transgenic mouse model for Huntington disease (lifespan, behavior). The class given is in vivo. As to conditions: for Effect on behavior and lifespan of R6-2 mice: pilot studies, s.c. daily 5 days per week, MGV-1 15 mg/kg, PK 11195 15 mg/kg, MGV-2 15 and 7.5 mg/kg; for Week of age until which 50% of treated R6-2 mice were still alive: 7.5 mg/kg s.c. daily 5 days per week, vehicle: 11th week (2-Cl-MGV-1 study), 10th week (2-Cl-MGV-2 study); for Uncontrollable tremor activity of R6-2 mice: 7.5 mg/kg s.c., data not shown. An excerpt: Huntington disease in humans is a hereditary disease including neurodegeneration leading to degradation in motor performance, continual involuntary movements, tremors, cardiovascular and respiratory impairments, and finally leading to death of the patients having the disease.[88] For this study, R6-2 mice (~120 CAG repeats B6CBA-Tg(HDexon1)62 Gpb/3J) mice were used as a transgenic mouse model for Huntington disease. For this purpose, mice obtained from the Jackson Laboratory were bred. In particular, males hemizygous for Tg(HDexon1)62 Gpb, and females from the wild-type background strain B6CBAF1/J, were bred according to the protocol of Jackson Laboratory.
For tests of drug efficacy, male offspring hemizygous for Tg(HDexon1)62 Gpb were used to determine drug effect on lifespan, motor activity, and general well-being of the animals. Drug treatment for this study consisted of daily (5 continuous days per week) subcutaneous injections in the neck area of mice with 20 μl of: the drug vehicle DMSO (vehicle control), 2-Cl-MGV-1(7.5 mg/kg) and 2-Cl-MGV-2 (7.5 mg/kg). […] Quantities were used according to previous studies regarding TSPO ligands[48] and adapted depending on the findings in the course of the pilot studies. The treatments were given until the animals died a natural death. Behavioral experiments included distance covered in an open field apparatus,[89] freezing,[89] and balance on a rotor-rod.[90] Spontaneous tremor activity was evaluated using a Hamilton–Kinder sensor in a soundproof ventilated apparatus (Kinder Scientific). The assays for locomotor activity, tremors, and body weight were performed on a weekly basis, together with evaluation of the well-being of the mice. Finally, the day of death was noted. As lifespan data were most pronounced, these are presented in the present description of the results. No adverse effects of any of the drug treatments were noted, neither for specific tests, nor for general observations. Importantly, DMSO had no effect by itself as compared with naive mice or saline-injected mice with various behavioral assays.[20]

Another series has as its system PC12 cells. Description: Neuronal differentiation of PC12 cells, strain not specified. In kind it is cell-based, rat. As to conditions: agent by itself; MGV-1 50 μM. The protocol:
For our newly developed differentiation method by MGV-1 in combination with glutamate, PC12 cells were plated onto poly-L-lysine coated culture plates and Petri dishes at a relatively low density (5.2×10^3 cells/cm^2 for six-well plates and 3.6×10^3 cells/cm^2 for Petri dishes), in DMEM medium containing 8% heat-inactivated FBS and 8% horse serum. […] Exposure to vehicle alone (culture medium with 1% of ethanol) was used as the control.
The major and determining indication of neural differentiation of PC12 cells is neurite development.[23],[80] […] The number of differentiated cells was determined by visual examination of the captured fields. In particular, a line was drafted at half height of the image and the cell bodies crossed by the line were further analyzed regarding differentiation. […] Cells with at least one identifiable neurite with a length at least equal to the cell body diameter were scored, and their number expressed as a percentage of the total number of cells crossed by said line. In addition, for each of these cells, the length of the longest neurite was determined (using AxioVision Image software, Zeiss). […]

“Also recorded” adds a separate entry of the source.

T1 sequence (P16257 whole entry): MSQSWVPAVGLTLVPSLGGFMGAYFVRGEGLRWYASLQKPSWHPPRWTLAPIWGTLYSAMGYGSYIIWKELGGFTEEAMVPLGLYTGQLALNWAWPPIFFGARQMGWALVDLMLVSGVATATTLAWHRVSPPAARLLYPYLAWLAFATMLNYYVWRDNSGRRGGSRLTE

As for `N[C@@H](CCC(=O)O)C(=O)O` [Glu, Glutamate, reference compound], the “Increase of NeuN expression (western blot)” value in series [1] is reported as “do not enhance NeuN expression significantly”. Moreover, the “Differentiation of PC12 strain #1 by the agent by itself” value in series [2] is on record as “do not have this effect”.

In the case of `CCN(C)C(=O)Oc1nc(-c2ccccc2)nc2ccccc12` [MGV-2, 2-phenylquinazolin-4-yl ethyl(methyl)carbamate], the “Prevention of cardiolipin oxidation / mitochondrial ROS generation induced by glutamate (NAO)” value in the series with U118MG cells [3] is reported as “prevent cardiolipin oxidation”. Further, in the series on U118MG cells [4], the “Protection against glutamate-induced cell death (LDH)” value (“Protection” below) is on record as “protect against lethal effects of glutamate; also recorded: already quite effective at 10 μM” and the “Lethal effects of the compound (LDH)” value is given as “undesired lethal effects at high concentrations (in particular 100 μM)”. Besides, the “Prevention of collapse of the ΔΨm induced by glutamate (JC-1)” value with U118MG cells [5] is reported as “prevention of the collapse of the ΔΨm”. This molecule also displayed an inhibition constant Ki in series [6] of 80 ± 11 nM. Further, the “Effect on behavior and lifespan of R6-2 mice” value in the series with R6-2 mice was “effects reminiscent of those of 2-Cl-MGV-1 and 2-Cl-MGV-2, but less consistent”.

For `CCN(C)C(=O)Oc1nc(-c2ccccc2Cl)nc2ccccc12` [2-Cl-MGV-2, 2-(2-chlorophenyl)quinazolin-4-yl ethyl(methyl)carbamate], in the series on U118MG cells [4], the “Protection” value was “protects excellently; also recorded: very effective in protecting against glutamate-induced cell death” and the “Lethal effects of the compound (LDH)” value is “undesired lethal effect at high concentrations when given just by itself”. The molecule also showed a Ki in series [6] of 80 ± 11 nM. Besides, in the series with R6-2 mice, the “Week of age until which 50% of treated R6-2 mice were still alive” value stood at 12 week and the “Uncontrollable tremor activity of R6-2 mice” value is “reduction of uncontrollable tremor activity”.

Turning to `CCN(CC)C(=O)Oc1nc(-c2ccccc2)nc2ccccc12` [MGV-3, 2-phenylquinazolin-4-yl diethylcarbamate], in the series with U118MG cells [4], the “Protection” value is listed as “protect against lethal effects of glutamate; also recorded: already quite effective at 10 μM” and the “Lethal effects of the compound (LDH)” value was “undesired lethal effects at high concentrations (in particular 100 μM)”. In series [6], this molecule returned a Ki of 2.6 ± 1 nM.

As for `CCN(CC)C(=O)Oc1nc(-c2ccccc2Cl)nc2ccccc12` [2-Cl-MGV-3, 2-(2-chlorophenyl)quinazolin-4-yl diethylcarbamate], the “Lethal effects of the compound (LDH)” value in the series on U118MG cells [4] was “undesired lethal effects at 50 and 100 μM both with and without glutamate exposure”. Moreover, the Ki in series [6] was 2.6 ± 1 nM.

For the molecule `CCC(C)N(C)C(=O)c1cc2ccccc2c(-c2ccccc2Cl)n1` (centres unmarked) [PK 11195, N-butan-2-yl-1-(2-chlorophenyl)-N-methylisoquinoline-3-carboxamide, reference compound], in the series on PC12 cells, the “Neuronal differentiation of PC12 cells (neurite outgrowth)” value was “can differentiate PC12 cells”. Besides, the “Effect on behavior and lifespan of R6-2 mice” value with R6-2 mice is reported as “did not show such effects”.

For `CN(C)C(=O)Oc1nc(-c2ccccc2Cl)nc2ccccc12` [2-Cl-MGV-1, 2-(2-chlorophenyl)quinazolin-4-yl dimethylcarbamate], the “Lethal effects of the compound (LDH)” value in the series with U118MG cells [4] is on record as “very little lethality by itself at any concentration; also recorded: shows the least lethal effects when applied just by itself”. The same molecule registered an inhibitory constant (Ki) in series [6] of 825 ± 315 nM. Besides, in the series on R6-2 mice, the “Week of age until which 50% of treated R6-2 mice were still alive” value worked out at 12 week and the “Uncontrollable tremor activity of R6-2 mice” value is “reduction of uncontrollable tremor activity”.

B1: NGF: mouse NGF, 2.5S from Promega; classical agent to induce neuronal differentiation of PC12 cells (protein, UniProt P01139 122-241, looked up)
Beta-nerve growth factor: SSTHPVFHMGEFSVCDSVSVWVGDKTTATDIKGKEVTVLAEVNINNSVFRQYFFETKCRASNPVESGCRGIDSKHWNSYCTTTHTFVKALTTDEKQAAWRFIRIDTACVCVLSRKATRRG
In the case of B1, the “Increase of NeuN expression (western blot)” value in series [1] was “do not enhance NeuN expression significantly”. Also, in series [2], the “Differentiation of PC12 strain #1 by the agent by itself” value was “do not have this effect”.
